pKi: −log10 of the molar value. Structures can show the parent of a compound that is named as a salt.
Target: T1, human histamine H4 receptor (Homo sapiens, UniProt Q9H3N8)
T1 construct: expressed in transfected cells; host or cells: SK-N-MC cells or COS7 cells, transiently transfected; cell membranes used
Experiment: Binding Assay on Recombinant Human Histamine H4 Receptor
Conditions: not given
Outline: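 Membranes from SK-N-MC or COS7 cells transiently transfected with human H4 receptor were incubated with ³H-histamine (5-70 nM); nonspecific binding defined with 10,000 nM histamine. Bound radioactivity collected by GF/C filtration and scintillation counting; test compounds assessed by displacement of ³H-ligand binding across concentrations.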

T1 sequence (Q9H3N8 whole entry): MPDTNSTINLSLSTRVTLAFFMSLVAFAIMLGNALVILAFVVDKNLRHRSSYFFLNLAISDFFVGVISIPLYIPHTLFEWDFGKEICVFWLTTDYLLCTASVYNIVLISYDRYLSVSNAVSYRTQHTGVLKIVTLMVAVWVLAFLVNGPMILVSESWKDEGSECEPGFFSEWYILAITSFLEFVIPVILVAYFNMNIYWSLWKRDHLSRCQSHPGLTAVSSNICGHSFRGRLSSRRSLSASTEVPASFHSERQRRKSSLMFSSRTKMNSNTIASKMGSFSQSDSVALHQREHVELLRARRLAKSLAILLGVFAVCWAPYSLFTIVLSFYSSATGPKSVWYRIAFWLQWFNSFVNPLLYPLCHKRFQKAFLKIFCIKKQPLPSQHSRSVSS

SMILES | pKi
COc1ccc2oc3c(N4C[C@H]5CCN[C@H]5C4)nc(N)nc3c2c1 (relative stereo) [Example 114, (cis)-4-(Hexahydro-pyrrolo[3,4-b]pyrrol-5-yl)-8-methoxy-benzo[4,5]furo[3,2-d]pyrimidin-2-ylamine trifluoroacetic acid salt] | 7.04
Nc1nc(N2CCN3CCCC3C2)c2oc3ccc(Br)cc3c2n1 (stereo not drawn) [Example 20, 8-Bromo-4-(hexahydro-pyrrolo[1,2-a]pyrazin-2-yl)-benzo[4,5]furo[3,2-d]pyrimidin-2-ylamine trifluoroacetic acid salt] | 8.33

Same assay, conditions: competition binding with 3H-histamine (5 nM), membranes of SK-N-MC or COS7 cells expressing human H4 receptor; Cheng-Prusoff, KD 5 nM; average of results obtained; read-out: Ki

SMILES | pKi
Nc1nc(N2C[C@@H]3C[C@H]2CN3)c2sc3cc(Br)ccc3c2n1 [Example 77, (S,S)-7-Bromo-4-(2,5-diaza-bicyclo[2.2.1]hept-2-yl)-benzo[4,5]thieno[3,2-d]pyrimidin-2-ylamine trifluoroacetic acid salt] | 5.49
CN[C@@H]1CCN(c2nc(N)nc3c2oc2ccccc23)C1 [Example 6, (R)-4-(3-Methylamino-pyrrolidin-1-yl)-benzo[4,5]furo[3,2-d]pyrimidin-2-ylamine citric acid salt] | 8.47
CC(C)CNc1nc(N2CCN(C)CC2)c2oc3ccc(Cl)cc3c2n1 [Example 120, [8-Chloro-4-(4-methyl-piperazin-1-yl)-benzo[4,5]furo[3,2-d]pyrimidin-2-yl]-isobutyl-amine] | 5.48
Nc1nc(N2CCC(N)C2)c2oc3c(Cl)cc(Cl)cc3c2n1 (stereo not drawn) [Example 4, 4-(3-Amino-pyrrolidin-1-yl)-6,8-dichloro-benzo[4,5]furo[3,2-d]pyrimidin-2-ylamine trifluoroacetic acid salt] | 7.51
CN[C@@H]1CCN(c2nc(N)nc3c2oc2cccc(OC)c23)C1 [Example 100, (R)-9-Methoxy-4-(3-methylamino-pyrrolidin-1-yl)-benzo[4,5]furo[3,2-d]pyrimidin-2-ylamine trifluoroacetic acid salt] | 7.70
Nc1nc(N2CC3C(N)C3C2)c2oc3ccc(Cl)cc3c2n1 (stereo not drawn) [Example 78, 4-(6-Amino-3-aza-bicyclo[3.1.0]hex-3-yl)-8-chloro-benzo[4,5]furo[3,2-d]pyrimidin-2-ylamine trifluoroacetic acid salt] | 7.66
Nc1nc(N2C[C@@H]3C[C@H]2CN3)c2oc3ccc(F)c(F)c3c2n1 [Example 149, (S,S)-4-(2,5-Diaza-bicyclo[2.2.1]hept-2-yl)-8,9-difluoro-benzo[4,5]furo[3,2-d]pyrimidin-2-ylamine trifluoroacetic acid salt] | < 5.00
Nc1nc(N2CC(N)C2)c2oc3ccc(Cl)cc3c2n1 [Example 129, 4-(3-Amino-azetidin-1-yl)-8-chloro-benzo[4,5]furo[3,2-d]pyrimidin-2-ylamine trifluoroacetic acid salt] | 7.72
CN1CCN(c2nc(N)nc3c2oc2ccc(Cl)c(Cl)c23)CC1 [Example 101, 8,9-Dichloro-4-(4-methyl-piperazin-1-yl)-benzo[4,5]furo[3,2-d]pyrimidin-2-ylamine trifluoroacetic acid salt] | 8.11
N[C@H]1CCCN(c2nc(NCCO)nc3c2oc2ccc(Cl)cc23)C1 [Example 161, (S)-2-[4-(3-Amino-piperidin-1-yl)-8-chloro-benzo[4,5]furo[3,2-d]pyrimidin-2-ylamino]-ethanol] | < 5.00
Nc1nc(N2CCNCC2)c2oc3ccc(Cl)c(Cl)c3c2n1 [Example 104, 8,9-Dichloro-4-piperazin-1-yl-benzo[4,5]furo[3,2-d]pyrimidin-2-ylamine trifluoroacetic acid salt] | 7.21
COc1ccc2oc3c(N4C[C@H]5CCCN[C@H]5C4)nc(N)nc3c2c1 (relative stereo) [Example 105, (cis)-8-Methoxy-4-(octahydro-pyrrolo[3,4-b]pyridin-6-yl)-benzo[4,5]furo[3,2-d]pyrimidin-2-ylamine trifluoroacetic acid salt] | 7.85
CN[C@@H]1CCN(c2nc(N)nc3c2oc2c(Cl)cc(Cl)cc23)C1 [Example 5, (R)-6,8-Dichloro-4-(3-methylamino-pyrrolidin-1-yl)-benzo[4,5]furo[3,2-d]pyrimidin-2-ylamine trifluoroacetic acid salt] | 8.72
NC[C@H]1CCCN1c1nc(N)nc2c1oc1ccc(Cl)cc12 [Example 79, (R)-4-(2-Aminomethyl-pyrrolidin-1-yl)-8-chloro-benzo[4,5]furo[3,2-d]pyrimidin-2-ylamine trifluoroacetic acid salt] | < 5.00
CN[C@@H]1CCN(c2nc(N)nc3c2oc2ccc(OC)cc23)C1 [Example 102, (R)-8-Methoxy-4-(3-methylamino-pyrrolidin-1-yl)-benzo[4,5]furo[3,2-d]pyrimidin-2-ylamine trifluoroacetic acid salt] | 7.92
Nc1nc(N2C[C@@H]3C[C@H]2CN3)c2oc3c(Cl)cc(Cl)cc3c2n1 [Example 38, (S,S)-6,8-Dichloro-4-(2,5-diaza-bicyclo[2.2.1]hept-2-yl)-benzo[4,5]furo[3,2-d]pyrimidin-2-ylamine trifluoroacetic acid salt] | < 5.00
Nc1nc(N2CCNCC2)c2oc3c(Cl)cc(Cl)cc3c2n1 [Example 31, 6,8-Dichloro-4-piperazin-1-yl-benzo[4,5]furo[3,2-d]pyrimidin-2-ylamine trifluoroacetic acid salt] | 6.85

SMILES | pKi
Nc1nc(N2CC(N)C2)c2oc3ccc(C(F)(F)F)cc3c2n1 [Example 144, 4-(3-Amino-azetidin-1-yl)-8-trifluoromethyl-benzo[4,5]furo[3,2-d]pyrimidin-2-ylamine] | < 5.00
COc1ccc2c(c1)sc1c(N3CCN(C)CC3)nc(N)nc12 [Example 159, 7-Methoxy-4-(4-methyl-piperazin-1-yl)-benzo[4,5]thieno[3,2-d]pyrimidin-2-ylamine trifluoroacetic acid salt] | 6.74
Nc1nc(N2C[C@@H]3C[C@H]2CN3)c2oc3cccc(Cl)c3c2n1 [Example 155, (S,S)-9-Chloro-4-(2,5-diaza-bicyclo[2.2.1]hept-2-yl)-benzo[4,5]furo[3,2-d]pyrimidin-2-ylamine trifluoroacetic acid salt] | 6.34
CNc1nc(N2CCN(C)CC2)c2oc3ccc(Cl)cc3c2n1 [Example 124, [8-Chloro-4-(4-methyl-piperazin-1-yl)-benzo[4,5]furo[3,2-d]pyrimidin-2-yl]-methyl-amine] | 7.01
CN1CCN(c2nc(NCCCN)nc3c2oc2ccc(Cl)cc23)CC1 [Example 122, N^1-[8-Chloro-4-(4-methyl-piperazin-1-yl)-benzo[4,5]furo[3,2-d]pyrimidin-2-yl]-propane-1,3-diamine] | 6.52
CN1CCCN(c2nc(NCCO)nc3c2oc2ccc(Cl)cc23)CC1 [Example 127, 2-[8-Chloro-4-(4-methyl-[1,4]diazepan-1-yl)-benzo[4,5]furo[3,2-d]pyrimidin-2-ylamino]-ethanol] | 6.59
NC[C@H]1CCN(c2nc(N)nc3c2oc2ccc(Cl)cc23)C1 [Example 30, (R)-4-(3-Aminomethyl-pyrrolidin-1-yl)-8-chloro-benzo[4,5]furo[3,2-d]pyrimidin-2-ylamine trifluoroacetic acid salt] | 6.85
CN[C@@H]1CCN(c2nc(N)nc3c2oc2cccc(F)c23)C1 [Example 136, (R)-9-Fluoro-4-(3-methylamino-pyrrolidin-1-yl)-benzo[4,5]furo[3,2-d]pyrimidin-2-ylamine trifluoroacetic acid salt] | 8.00
CN[C@@H]1CCN(c2nc(N)nc3c2oc2ccc(Cl)cc23)C1 [Example 18, (R)-8-Chloro-4-(3-methylamino-pyrrolidin-1-yl)-benzo[4,5]furo[3,2-d]pyrimidin-2-ylamine] | 9.38
CN[C@H]1CCN(c2nc(N)nc3c2sc2ccc(Br)cc23)C1 [Example 47, (S)-8-Bromo-4-(3-methylamino-pyrrolidin-1-yl)-benzo[4,5]thieno[3,2-d]pyrimidin-2-ylamine hydrochloride salt] | 7.00
C[C@@H]1CN(c2nc(N)nc3c2oc2ccc(Cl)cc23)CCN1 [Example 134, (R)-8-Chloro-4-(5-methyl-piperazin-1-yl)-benzo[4,5]furo[3,2-d]pyrimidin-2-ylamine trifluoroacetic acid salt] | 7.30
CN1CCN(c2nc(N)nc3c2sc2ccccc23)CC1 [Example 44, 4-(4-Methyl-piperazin-1-yl)-benzo[4,5]thieno[3,2-d]pyrimidin-2-ylamine] | 7.54
Nc1nc(N2CCN3CCCCC3C2)c2oc3ccccc3c2n1 (stereo not drawn) [Example 36, 4-(Octahydro-pyrido[1,2-a]pyrazin-2-yl)-benzo[4,5]furo[3,2-d]pyrimidin-2-ylamine trifluoroacetic acid salt] | 6.17
Nc1nc(N2CCNCC2)c2oc3cccc(Cl)c3c2n1 [Example 153, 9-Chloro-4-piperazin-1-yl-benzo[4,5]furo[3,2-d]pyrimidin-2-ylamine trifluoroacetic acid salt] | 5.99
CN[C@@H]1CCN(c2nc(N)nc3c2oc2cccc(Cl)c23)C1 [Example 152, (R)-9-Chloro-4-(3-methylamino-pyrrolidin-1-yl)-benzo[4,5]furo[3,2-d]pyrimidin-2-ylamine trifluoroacetic acid salt] | 7.06
CN[C@@H]1CCN(c2nc(N)nc3c2oc2cccc(C(F)(F)F)c23)C1 [Example 84, (R)-4-(3-Methylamino-pyrrolidin-1-yl)-9-trifluoromethyl-benzo[4,5]furo[3,2-d]pyrimidin-2-ylamine citrate salt] | < 5.00
Nc1nc(N2CC3CCCNC3C2)c2sc3cc(C(F)(F)F)ccc3c2n1 (stereo not drawn) [Example 58, 4-(Octahydro-pyrrolo[3,4-b]pyridin-6-yl)-7-trifluoromethyl-benzo[4,5]thieno[3,2-d]pyrimidin-2-ylamine trifluoroacetic acid salt] | 6.52

Reference: patent US8030321B2, “Benzofuro- and benzothienopyrimidine modulators of the histamine H4 receptor” (Janssen Pharmaceutica, NV, priority 2006, dated 2011)
